This note sets out measurements from patent US7470711B2, “Piperidinyl substituted cyclohexane-1,4-diamines” (Janssen Pharmaceutica N.V., priority 2005, dated 2008).

One assay concerns the target T1, α1a-AR (Homo sapiens, UniProt P35348).
T1 construct: expressed in transfected cells; host or cells: COS-7 cells (membranes)
T1 sequence (P35348 1-455 isoform P35348-4): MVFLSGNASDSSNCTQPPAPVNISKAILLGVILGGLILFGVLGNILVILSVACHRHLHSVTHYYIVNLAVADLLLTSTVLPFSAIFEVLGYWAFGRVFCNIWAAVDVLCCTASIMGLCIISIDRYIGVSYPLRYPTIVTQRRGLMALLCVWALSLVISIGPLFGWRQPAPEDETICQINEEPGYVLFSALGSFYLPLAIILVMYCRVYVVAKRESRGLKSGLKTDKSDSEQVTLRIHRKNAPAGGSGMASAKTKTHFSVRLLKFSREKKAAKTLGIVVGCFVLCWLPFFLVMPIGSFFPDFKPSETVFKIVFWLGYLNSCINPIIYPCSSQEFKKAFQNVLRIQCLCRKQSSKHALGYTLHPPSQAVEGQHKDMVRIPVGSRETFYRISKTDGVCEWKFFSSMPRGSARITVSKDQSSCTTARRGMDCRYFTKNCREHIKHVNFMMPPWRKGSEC
The experiment in a line: α1-Adrenergic receptor radio-ligand binding assay, α1a subtype. As to the method:
(§1) Membranes were prepared from COS-7 cells (African Green monkey kidney SV40-transformed cells) that had been transfected with one of the three α1-AR subtypes (Genbank accession number for the α1a subtype: AF013261; Genbank accession number for the α1b subtype: NM000679; Genbank accession number for the α1d subtype: NM000678) using the following method: COS cells from ten 100 mm tissue culture plates were scraped into a 5 mL volume of TE (a mixture of 50 mM Tris-HCl, 5 mM EDTA, pH 7.4). […] The disrupted cells were centrifuged at 1000×g for 10 min at 4° C. Supernatants were centrifuged at 34,500×g for 20 min at 4° C. The membrane pellets were suspended in a 2 mL volume of TNE (a mixture of 50 mM Tris-HCl, 5 mM EDTA and 150 mM NaCl at pH 7.4). An aliquot of the membrane suspension was stored at −70° C. until use. The protein concentration was determined using the BioRad “DC” protein assay kit following membrane solubilization with Triton X-100.
(§2) Triplicate determinations of radio-ligand binding in the presence of increasing concentrations of testing compound were made. The reagents were added to 96-well polypropylene plate wells. […] The plate was incubated at rt for 1 hr. The contents of the wells were filtered through a glass filter (type C) (GF/C) membrane Unifilter plate (Packard Instruments) using the Packard Filtermate cell harvester. The filter plates were dried in a vacuum oven for 30 min at 40° C. 25 μL Microscint 20 liquid scintillation fluid (Packard Instuments) was added to each well. The radioactive content was analyzed in the TopCount microplate scintillation counter (Packard Instruments).

A further assay addresses T2, α1b-AR (Homo sapiens, UniProt P35368).
T2 construct: expressed in transfected cells; host or cells: COS-7 cells (membranes)
T2 sequence (P35368 1-520): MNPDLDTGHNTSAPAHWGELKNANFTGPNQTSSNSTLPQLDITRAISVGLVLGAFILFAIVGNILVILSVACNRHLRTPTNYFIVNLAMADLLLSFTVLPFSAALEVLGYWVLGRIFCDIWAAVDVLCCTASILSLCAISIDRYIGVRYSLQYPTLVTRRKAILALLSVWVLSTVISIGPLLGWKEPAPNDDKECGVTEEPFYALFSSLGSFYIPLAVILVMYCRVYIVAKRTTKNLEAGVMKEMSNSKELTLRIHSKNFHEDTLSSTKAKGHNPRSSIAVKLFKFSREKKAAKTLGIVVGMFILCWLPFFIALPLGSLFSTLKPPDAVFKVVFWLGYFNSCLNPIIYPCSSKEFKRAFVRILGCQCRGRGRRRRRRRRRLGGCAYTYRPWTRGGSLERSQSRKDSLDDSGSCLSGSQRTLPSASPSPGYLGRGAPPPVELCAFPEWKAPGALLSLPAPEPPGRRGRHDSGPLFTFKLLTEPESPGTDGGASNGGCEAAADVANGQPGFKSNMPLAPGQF
The assay is described as follows: α1-Adrenergic receptor radio-ligand binding assay, α1b subtype. Here is the method:
as §1, §2

In the next assay the target is T3, α1d-AR (Homo sapiens, UniProt P25100).
T3 construct: expressed in transfected cells; host or cells: COS-7 cells (membranes)
T3 sequence (P25100 1-572): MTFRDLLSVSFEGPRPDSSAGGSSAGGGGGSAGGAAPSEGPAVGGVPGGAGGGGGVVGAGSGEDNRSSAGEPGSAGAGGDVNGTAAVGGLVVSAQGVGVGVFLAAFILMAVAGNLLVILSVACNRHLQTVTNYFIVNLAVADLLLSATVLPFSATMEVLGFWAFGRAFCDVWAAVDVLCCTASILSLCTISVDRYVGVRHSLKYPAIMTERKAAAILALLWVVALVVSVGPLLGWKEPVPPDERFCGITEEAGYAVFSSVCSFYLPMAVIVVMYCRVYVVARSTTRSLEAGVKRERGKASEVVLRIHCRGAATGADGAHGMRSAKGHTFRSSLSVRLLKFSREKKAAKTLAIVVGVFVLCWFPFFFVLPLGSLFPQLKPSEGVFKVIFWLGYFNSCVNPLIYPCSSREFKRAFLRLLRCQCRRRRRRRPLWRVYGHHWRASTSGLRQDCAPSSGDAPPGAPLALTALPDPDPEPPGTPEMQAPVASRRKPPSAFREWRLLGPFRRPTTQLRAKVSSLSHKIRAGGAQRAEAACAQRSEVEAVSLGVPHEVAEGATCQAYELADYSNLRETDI
The experiment in a line: α1-Adrenergic receptor radio-ligand binding assay, α1d subtype. As to the method:
as §1, §2

Setting [1] is: 125I-HEAT, membranes of COS-7 cells transfected with α1b subtype, rt 1 hr, read-out: Receptor Binding, Ki α1b-AR.
Where [2] appears, read: 125I-HEAT, membranes of COS-7 cells transfected with α1a subtype, rt 1 hr, read-out: Receptor Binding, Ki α1a-AR.
Setting [3] is: 125I-HEAT, membranes of COS-7 cells transfected with α1d subtype, rt 1 hr, read-out: Receptor Binding, Ki α1d-AR.

Like-named read-outs stand apart in the source and are kept apart here.

Regarding `COc1ccc(S(=O)(=O)N[C@H]2CC[C@@H](N3CCC(c4ccccc4OC(C)C)CC3)CC2)cc1OC` [Cpd 1, N-cis-{4-[4-(2-isopropoxy-phenyl)-piperidin-1-yl]-cyclohexyl}-3,4-dimethoxy-benzenesulfonamide], the Ki (as a rule, the dissociation constant of the complex between target and ligand, obtained from inhibition or displacement) at α1a-AR is 1.2 nM; on α1b-AR (setting [1]), 144 nM; at α1d-AR it was 1.8 nM.

For `COc1ccc(S(=O)(=O)N[C@H]2CC[C@H](N3CCC(c4ccccc4OC(C)C)CC3)CC2)cc1OC` [Cpd 2, N-trans-{4-[4-(2-isopropoxy-phenyl)-piperidin-1-yl]-cyclohexyl}-3,4-dimethoxy-benzenesulfonamide], the inhibition constant (Ki) at α1a-AR (setting [2]) was found to be 27.8 nM; at α1b-AR (setting [1]), 148 nM; at α1d-AR (setting [3]) it was 40.2 nM.

Turning to `COc1ccc(S(=O)(=O)N[C@H]2CC[C@@H](N3CCC(c4ccccc4OCC(F)(F)F)CC3)CC2)cc1OC` [Cpd 5, 3,4-dimethoxy-N-cis-(4-{4-[2-(2,2,2-trifluoro-ethoxy)-phenyl]-piperidin-1-yl}-cyclohexyl)-benzenesulfonamide], the figures for the Ki at α1a-AR, at α1b-AR and on α1d-AR were 3 nM, 470 nM and 7.3 nM, respectively.

Turning to `COc1ccc(S(=O)(=O)N[C@H]2CC[C@H](N3CCC(c4ccccc4OCC(F)(F)F)CC3)CC2)cc1OC` [Cpd 6, 3,4-dimethoxy-N-trans-(4-{4-[2-(2,2,2-trifluoro-ethoxy)-phenyl]-piperidin-1-yl}-cyclohexyl)-benzenesulfonamide], the Ki at α1a-AR was 1.4 nM; on α1b-AR it was 1380 nM; on α1d-AR it was 88.6 nM.

For `COc1ccc(S(=O)(=O)N[C@H]2CC[C@@H](N3CCC(c4ccccc4OC4CC4)CC3)CC2)cc1OC` [Cpd 7, N-cis-{4-[4-(2-cyclopropoxy-phenyl)-piperidin-1-yl]-cyclohexyl}-3,4-dimethoxy-benzenesulfonamide], the Ki on α1a-AR (setting [2]) turned out to be 0.91 nM; at α1b-AR (setting [1]), 141 nM; at α1d-AR (setting [3]) it was 2 nM.

Consider `COc1ccc(S(=O)(=O)N[C@H]2CC[C@H](N3CCC(c4ccccc4OC4CC4)CC3)CC2)cc1OC` [Cpd 8, N-trans-{4-[4-(2-cyclopropoxy-phenyl)-piperidin-1-yl]-cyclohexyl}-3,4-dimethoxy-benzenesulfonamide], for which the Ki on α1a-AR came out at 10.8 nM; on α1b-AR (setting [1]), 133 nM; on α1d-AR, 33.6 nM.

As for `COc1ccc(Cl)cc1S(=O)(=O)N[C@H]1CC[C@@H](N2CCC(c3ccccc3OC3CC3)CC2)CC1` [Cpd 9, 5-chloro-N-cis-{4-[4-(2-cyclopropoxy-phenyl)-piperidin-1-yl]-cyclohexyl}-2-methoxy-benzenesulfonamide], the Ki was 1.3 nM on α1a-AR (setting [2]), 82 nM on α1b-AR (setting [1]) and 2.6 nM at α1d-AR (setting [3]).

As to `COc1ccc(Cl)cc1S(=O)(=O)N[C@H]1CC[C@H](N2CCC(c3ccccc3OC3CC3)CC2)CC1` [Cpd 10, 5-chloro-N-trans-{4-[4-(2-cyclopropoxy-phenyl)-piperidin-1-yl]-cyclohexyl}-2-methoxy-benzenesulfonamide], the Ki at α1a-AR (setting [2]) amounted to 4.5 nM; at α1b-AR (setting [1]), 305 nM; at α1d-AR (setting [3]) it was 47 nM.

On to `O=S(=O)(N[C@H]1CC[C@@H](N2CCC(c3ccccc3OC3CC3)CC2)CC1)c1cc(Cl)ccc1F` [Cpd 11, 5-chloro-N-cis-{4-[4-(2-cyclopropoxy-phenyl)-piperidin-1-yl]-cyclohexyl}-2-fluoro-benzenesulfonamide], for which the inhibitory constant (Ki) at α1a-AR (setting [2]) is 1.8 nM; at α1b-AR (setting [1]) it was 107 nM; on α1d-AR (setting [3]) it was 2.1 nM.

With `O=S(=O)(N[C@H]1CC[C@H](N2CCC(c3ccccc3OC3CC3)CC2)CC1)c1cc(Cl)ccc1F` [Cpd 12, 5-chloro-N-trans-{4-[4-(2-cyclopropoxy-phenyl)-piperidin-1-yl]-cyclohexyl}-2-fluoro-benzenesulfonamide], the Ki on α1a-AR (setting [2]) amounted to 3.8 nM; on α1b-AR (setting [1]), 337 nM; at α1d-AR (setting [3]), 32 nM.

Consider `O=S(=O)(N[C@H]1CC[C@@H](N2CCC(c3ccccc3OC3CC3)CC2)CC1)c1ccc(Cl)cc1Cl` [Cpd 15, 2,4-dichloro-N-cis-{4-[4-(2-cyclopropoxy-phenyl)-piperidin-1-yl]-cyclohexyl}-benzenesulfonamide], for which the Ki at α1a-AR (setting [2]) was 79 nM; at α1b-AR (setting [1]), 839 nM; on α1d-AR (setting [3]) it was 6.1 nM.

On to `O=S(=O)(N[C@H]1CC[C@H](N2CCC(c3ccccc3OC3CC3)CC2)CC1)c1ccc(Cl)cc1Cl` [Cpd 16, 2,4-dichloro-N-trans-{4-[4-(2-cyclopropoxy-phenyl)-piperidin-1-yl]-cyclohexyl}-benzenesulfonamide], for which the Ki was 30.4 nM at α1a-AR (setting [2]), 411 nM at α1b-AR (setting [1]) and 2.4 nM at α1d-AR (setting [3]).

For the molecule `O=S(=O)(N[C@H]1CC[C@@H](N2CCC(c3ccccc3OC3CC3)CC2)CC1)c1ccc2c(c1)OCO2` [Cpd 21, benzo[1,3]dioxole-5-sulfonic acid cis-{4-[4-(2-cyclopropoxy-phenyl)-piperidin-1-yl]-cyclohexyl}-amide], the values for the Ki on α1a-AR, on α1b-AR and at α1d-AR were 15.6 nM, 275 nM and 13 nM, respectively.

Take `O=S(=O)(N[C@H]1CC[C@H](N2CCC(c3ccccc3OC3CC3)CC2)CC1)c1ccc2c(c1)OCO2` [Cpd 22, benzo[1,3]dioxole-5-sulfonic acid trans-{4-[4-(2-cyclopropoxy-phenyl)-piperidin-1-yl]-cyclohexyl}-amide]: the results for the Ki at α1a-AR, on α1b-AR and on α1d-AR were 14 nM, 340 nM and 57 nM, respectively.

In the case of `COc1ccc(S(=O)(=O)N[C@H]2CC[C@@H](N3CCC(c4ccc(F)cc4OC(C)C)CC3)CC2)cc1OC` [Cpd 31, N-cis-{4-[4-(4-fluoro-2-isopropoxy-phenyl)-piperidin-1-yl]-cyclohexyl}-3,4-dimethoxy-benzenesulfonamide], the values for the inhibitory constant (Ki) at α1a-AR (setting [2]), on α1b-AR (setting [1]) and at α1d-AR were 16 nM, 690 nM and 12.4 nM, respectively.

As for `COc1ccc(S(=O)(=O)N[C@H]2CC[C@H](N3CCC(c4ccc(F)cc4OC(C)C)CC3)CC2)cc1OC` [Cpd 32, N-trans-{4-[4-(4-fluoro-2-isopropoxy-phenyl)-piperidin-1-yl]-cyclohexyl}-3,4-dimethoxy-benzenesulfonamide], the values for the Ki on α1a-AR (setting [2]), at α1b-AR (setting [1]) and at α1d-AR (setting [3]) were 23 nM, 639 nM and 60 nM, respectively.
